From patent publication US8545834B2, “G-substrate for the treatment and prevention of parkinson's disease” (The McLean Hospital Corporation, priority 2007, dated 2013)

Experiments:
Format in all cases: cell-based, human
BE(2)-M17 cells = assay: In vitro protection assays (MTS cell viability, LDH release) against neurotoxins; settings: lentiviral overexpression in BE(2)-M17 cells, toxin 20 hrs
Method: Viability of the M17 cells was assessed following exposure to a variety of neurotoxins, each representing different aspects of PD pathology. 6-hydroxydopamine (6-OHDA) causes oxidative stress. MG-132 induces proteasome inhibition. And, MPP+ causes mitochondrial dysfunction by inhibiting Complex I. Cytotoxicity of M17 cells was determined using both cell viability assays and LDH release. G-substrate overexpression in M17 cells was confirmed by Western blot analysis (FIG. 3A) and by immunocytochemistry (FIG. 3B).
BE(2)-M17 cells were transduced with lentivirus expressing control or G-substrate with a multiplicity of infection 15. Cells were grown in Optimem™ (Invitrogen, Carlsbad, Calif.) supplemented with 10% heat-inactivated fetal calf serum (Hyclone, Logan, Utah), nonessential amino acid and sodium pyruvate. Cells were maintained at 37° C., in 5% CO2 humid atmosphere. For the bioassay, cells were plated in 96 well plates at 5000 per well. The next day, cells were treated with various concentrations of 6-OHDA (Sigma), MG-132 (Calbiochem) and MPP+ (Sigma) for 20 hrs. The supernatant was used to determine cytotoxicity using LDH release assay kit (Roche, Indianapolis, Ind.) and the cells remaining on the plate was used to determine cell viability using MTS based solution, CellTiter 96 AQueous One™ solution cell proliferation assay (Promega, Madison, Wis.).
Three different siRNAs for human G-substrate as described herein, a negative control siRNA, and a validated Akt siRNA (Ambion; Austin, Tex.) were used. Cells were plated in 96 well plates at 5000 per well with siRNAs and siPORT NeoFX transfection agent (Ambion, Austin, Tex.). After 48 hrs of incubation with siRNAs, each of the toxicants (6-OHDA, MG-132 or MPP+) were applied to the cells. Cell viability and cytotoxicity was measured after 20 hrs of toxin exposure.

Akt, GSK3β, ERK1/2, p38 = assay: Western blot of phosphorylation levels of PP2A targets in BE(2)-M17 cells
Description: As described herein, G-substrate overexpression altered the phosphorylation levels of PP2A targets known to play critical roles in cell survival. Akt, GSK3β, and ERK1/2 are known to promote cell survival when phosphorylated (Song et al., J. Cell. Mol. Med. 9: 59-71, 2005; Chen et al., 2004; Ray et al., J. Biol. Chem. 280: 31091-31100, 2005; Tamura et al., FEBS Lett. 569: 249-255, 2004) and phosphorylated p38 is known to mediate cell death in dopaminergic neurons exposed to various toxins including 6-OHDA (Choi et al., J. Biol. Chem. 279: 20451-20460, 2004; Ruano et al., Neurosci. 140: 1157-1168, 2006; Ou et al., Proc. Natl. Acad. Sci. USA 103: 10923-10928, 2006). To test whether changes in phosphorylation levels of these proteins are G-substrate-dependent, both control and G-substrate-expressing cells were exposed to 50 μM 6-OHDA for various durations (t=0, 2, 5 and 10 hr). BE(2)-M17 cells were prepared and cultured as described above. The level of the total and phosphorylated forms of these PP2A substrates was detected by Western blot analysis (FIGS. 7A, 7C, 7E, and 7H).
Cells and tissue samples were collected from and suspended in lysis buffer containing: 50 mM Tris-HCl, 0.15 M NaCl, 0.32 M sucrose, 1.0 mM EDTA, and 1% NP-40. In addition, phosphatase inhibitors I and II (1:100) and protease inhibitors (1:100) were added fresh prior to cell lysis (Sigma-Aldrich, P2850, P5276, and P8340 respectively). Following cell lysis, the homogenate was centrifuged, a portion of the supernatant was reserved for protein determination (BCA Assay, Pierce, Rockford, Ill.) and the remaining was stored at −20° C. 20 μg (in vitro cell preps) and 50 μg (tissue dissections) of solubilized protein were mixed 1:1 with sample buffer and boiled for 5 min. The samples and molecular weight standards were separated using the Criterion precast 10% SDS-polyacrylamide gel system (Bio-Rad, Hercules, Calif.). After electrophoresis, the proteins were electrically transferred to PVDF membranes at 100 V for 30 min. After transfer, blots were incubated in Tris-buffered saline with 0.1% Tween 20 (TBS-T) containing 5% BSA. Subsequently, blots were incubated with the following antibodies at 4° C. overnight (1:1000 unless otherwise stated): phospho-Akt (ser473), phospho-GSK3β (ser9), phospho-erk1/2, and phospho-p38 (Cell Signaling Technologies, Danvers, Mass.). HRP-conjugated secondary antibodies were then applied and immunoreactive bands were visualized with chemiluminescence (Amersham Biosciences, Arlington Heights, Ill.) and exposed onto film. Immunoblots were then stripped and re-probed for the expression of the total protein (Cell Signaling) and beta-actin (1:10 000) (Abcam) to serve as a loading control. Optical density analysis (NIH image) was used to determine the relative abundance of protein in each sample. The optical densities of the phospho epitopes were standardized to their respective total proteins and this value was used in the statistical analyses.

PP2A = PP2A activity assay (immunoprecipitated PP2A, phosphopeptide, Malachite Green); settings: BE(2)-M17 cells exposed to 50 μM 6-OHDA for 2 hours; versus control cells
Method: PP2A activity was measured in control BE(2)-M17 cells at various incubation times (t=0, 1, 2, 5 and 8 hr) after exposure to 50 μM 6-OHDA. […] Control, wild-type, and T123A G-substrate-expressing cells were then exposed to 50 μM 6-OHDA for 2 hours before measurement of PP2A activity.
PP2A activity was measured using a non-radioactive kit according to the manufacturer's instruction (Upstate Biotechnologies, Lake Placid, N.Y.). After 50 μM 6-OHDA exposure with various times, cells were harvested in 20 mM imidazole-HCl, 2 mM EDTA, 2 mM EGTA, pH7 with a protease inhibitor cocktail (Sigma). Protein concentrations of the lysates were measured using BCA assay (Pierce) and 500 μg of protein was immunoprecipitated using an anti-PP2A catalytic subunit antibody and protein A-Sepharose beads. Immunoprecipitated PP2A was then incubated with phosphopeptide (K-R-pT-I-R-R (SEQ ID NO: 8)) for 10 min at 37° C. Dephosphorylation of the phosphopeptide was assayed spectrophotometrically at 650 nm using Malachite Green.

G-substrate: human wild type G-substrate (SEQ ID NO.: 1) overexpressed from a lentiviral vector
protection against MPP+-induced toxicity (cell viability, LDH release) (BE(2)-M17 cells): neither wild-type nor T123A mutant G-substrate overexpression was protective
neuroprotection against 6-OHDA toxicity (cell viability, LDH release) (BE(2)-M17 cells; compared to control): neuroprotective
neuroprotection against MG-132 toxicity (cell viability, LDH release) (BE(2)-M17 cells; compared to control): neuroprotective
level of phosphorylated p38 (Akt, GSK3β, ERK1/2, p38; G-substrate overexpression, 50 μM 6-OHDA): did not alter
level of pAkt (Akt, GSK3β, ERK1/2, p38; G-substrate overexpression, basal and 2, 5 and 10 hours after 50 μM 6-OHDA): significant increase
basal level of pGSK3β (Akt, GSK3β, ERK1/2, p38; G-substrate-overexpressing cells, basal): increased
level of pErk2 (Akt, GSK3β, ERK1/2, p38; only at 10 hours following 50 μM 6-OHDA, no basal level increase): increased
level of pErk1 (Akt, GSK3β, ERK1/2, p38; similar trend as pErk2, 50 μM 6-OHDA): did not reach the statistical significance
PP2A activity in G-substrate-expressing cells (PP2A): significant reduction
